These compounds were tested against recombinant human S1P1 receptor (Homo sapiens, UniProt P21453) (assay: GTPγS assay to determine EC50 values). Settings: 35S-GTPγS binding, membrane preparations of CHO cells expressing recombinant human S1P1 receptor, pH 7.4.
recombinant human S1P1 receptor, sequence (P21453 whole entry): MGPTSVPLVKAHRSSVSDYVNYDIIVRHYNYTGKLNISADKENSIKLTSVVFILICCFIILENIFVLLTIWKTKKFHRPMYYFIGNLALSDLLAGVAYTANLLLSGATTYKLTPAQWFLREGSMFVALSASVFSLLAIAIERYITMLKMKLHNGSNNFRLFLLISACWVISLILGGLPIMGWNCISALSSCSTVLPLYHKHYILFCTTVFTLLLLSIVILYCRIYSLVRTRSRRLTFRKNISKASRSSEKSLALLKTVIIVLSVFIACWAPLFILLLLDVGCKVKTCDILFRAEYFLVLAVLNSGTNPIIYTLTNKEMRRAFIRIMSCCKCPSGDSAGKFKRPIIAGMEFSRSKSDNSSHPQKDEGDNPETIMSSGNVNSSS
Format: biochemical
Protocol: GTPγS binding assays are performed in 96 well microtiter plates (Nunc, 442587) in a final volume of 200 μl, using membrane preparations of CHO cells expressing recombinant human S1P1 receptor. Assay conditions are 20 mM Hepes (Fluka, 54461), 100 mM NaCl (Fluka, 71378), 5 mM MgCl2 (Fluka, 63064), 0.1% BSA (Calbiochem, 126609), 1 μM GDP (Sigma, G-7127), 2.5% DMSO (Fluka, 41644), […] ^35S-GTPγS (Amersham Biosciences, SJ1320). The pH is 7.4. Test compounds are dissolved and diluted in 100% DMSO and pre-incubated at room temperature for 30 min in 150 μl of the above assay buffer, in the absence of ^35S-GTPγS. After addition of 50 μl of ^35S-GTPγS, the assay is incubated for 1 h at rt. The assay is terminated by transfer of the reaction mixture to a Multiscreen plate (Millipore, MAHFC1H60) using a cell harvester from Packard Biosciences, and the plates are washed with ice-cold 10 mM Na2HPO4/NaH2PO4 (70%/30%), dried, sealed at the bottom and, after addition of 25 μl MicroScint20 (Packard Biosciences, order #6013621), sealed on the top. Membrane-bound ^35S-GTPγS is measured with a TopCount from Packard Biosciences.
EC50 is the concentration of agonist inducing 50% of the maximal specific ^35S-GTPγS binding. Specific binding is determined by subtracting non-specific binding from maximal binding. Maximal binding is the amount of cpm bound to the Multiscreen plate in the presence of 10 μM of S1P. Non-specific binding is the amount of binding in the absence of an agonist in the assay.
The EC50 values were determined according to the method described above: […]
`CCCc1c(CC(C)C)csc1C(=O)/C=C/c1cc(C)c(O)c(C)c1` [Example 3, 3-(4-Hydroxy-3,5-dimethyl-phenyl)-1-(4-isobutyl-3-propyl-thiophen-2-yl)-propenone] showed an EC50 of 5.8 nM.
In the case of `Cc1cc(-c2noc(-c3scc(CC(C)C)c3C)n2)cc(C)c1OC[C@@H](O)CNC(=O)CO` [Example 70, (S)-2-Hydroxy-N-(2-hydroxy-3-{4-[5-(4-isobutyl-3-methyl-thiophen-2-yl)-[1,2,4]oxa-diazol-3-yl]-2,6-dimethyl-phenoxy}-propyl)-acetamide], the EC50 is reported as 1.1 nM.
For `Cc1cc(-c2noc(-c3sc(C)c(CC(C)C)c3C)n2)cc(C)c1OCC(O)CNC(=O)CO` (racemic) [Example 50, rac-2-Hydroxy-N-(2-hydroxy-3-{4-[5-(4-isobutyl-3,5-dimethyl-thiophen-2-yl)-[1,2,4]oxadiazol-3-yl]-2,6-dimethyl-phenoxy}-propyl)acetamide], the EC50 was 2.1 nM.
For `Cc1cc(CCC(=O)c2scc(CC(C)C)c2CC(C)C)cc(C)c1O` [Example 7, 1-(3,4-diisobutyl-thiophen-2-yl)-3-(4-hydroxy-3,5-dimethyl-phenyl)-propan-1-one], the EC50 was 8.4 nM.
`CCc1cc(-c2noc(-c3cc(CC(C)C)c(C)s3)n2)cc(C)c1OCC(O)CNC(=O)CO` (racemic) [Example 16, rac-N-(3-{2-Ethyl-4-[5-(4-isobutyl-5-methyl-thiophen-2-yl)-[1,2,4]oxadiazol-3-yl]-6-methyl-phenoxy}-2-hydroxy-propyl)-2-hydroxy-acetamide] was tested, and the EC50 was 5.5 nM.
`CCc1cc(-c2noc(-c3cc(CC(C)C)c(C)s3)n2)cc(C)c1CCC(=O)NCCO` [Example 58, 3-{2-ethyl-4-[5-(4-isobutyl-5-methyl-thiophen-2-yl)-[1,2,4]oxadiazol-3-yl]-6-methyl-phenyl}-N-(2-hydroxy-ethyl)-propionamide] was tested, and the EC50 was 7.5 nM.
Work on `CCc1cc(-c2nnc(-c3sc(C)c(CC(C)C)c3C)o2)cc(C)c1OC[C@@H](O)CNC(=O)CO` [Example 109, (S)—N-(3-{2-Ethyl-4-[5-(4-isobutyl-3,5-dimethyl-thiophen-2-yl)-[1,3,4]oxadiazol-2-yl]-6-methyl-phenoxy}-2-hydroxy-propyl)-2-hydroxy-acetamide] yielded an EC50 of 0.4 nM.
`CCCc1c(CC(C)C)csc1C(=O)CCc1cc(C)c(OC[C@@H](O)CO)c(C)c1` [Example 8, 3-[4-((S)-2,3-dihydroxy-propoxy)-3,5-dimethyl-phenyl]-1-(4-isobutyl-3-propyl-thiophen-2-yl)-propan-1-one] gave an EC50 of 7.5 nM.

What follows are compounds tested on circulating lymphocytes (assay: Assessment of in vivo efficacy: circulating lymphocytes after oral administration). Settings: 6 h after oral administration of 10 mg/kg to normotensive male Wistar rats, as compared to vehicle-treated group; mean±SEM.
Design: unit not given here
Protocol: The efficacy of the compounds of Formula (I) is assessed by measuring the circulating lymphocytes after oral administration of 3 to 30 mg/kg of a compound of Formula (I) to normotensive male Wistar rats. The animals are housed in climate-controlled conditions with a 12 h-light/dark cycle, and have free access to normal rat chow and drinking water. Blood is collected before and 3, 6 and 24 h after drug administration. Full blood is subjected to hematology using Advia Hematology system (Bayer Diagnostics, Züurich, Switzerland).
All data are presented as mean±SEM. Statistical analyses are performed by analysis of variance (ANOVA) using Statistica (StatSoft) and the Student-Newman-Keuls procedure for multiple comparisons. The null hypothesis is rejected when p<0.05.
Compound `Cc1cc(-c2noc(-c3sc(C)c(CC(C)C)c3C)n2)cc(C)c1OCC(O)CNC(=O)CO` (racemic) [Example 50, rac-2-Hydroxy-N-(2-hydroxy-3-{4-[5-(4-isobutyl-3,5-dimethyl-thiophen-2-yl)-[1,2,4]oxadiazol-3-yl]-2,6-dimethyl-phenoxy}-propyl)acetamide] has a Lymphocyte counts of −93 ± 1.
In the case of `CCc1cc(-c2nnc(-c3cc(CC(C)C)c(C)s3)o2)cc(C)c1OC[C@@H](O)CNC(=O)CO` [Example 64, N—((S)-3-{2-ethyl-4-[5-(4-isobutyl-5-methyl-thiophen-2-yl)-[1,3,4]oxadiazol-2-yl]-6-methyl-phenoxy}-2-hydroxy-propyl)-2-hydroxy-acetamide], the Lymphocyte counts is reported as −66 ± 1.
`Cc1cc(-c2noc(-c3scc(CC(C)C)c3C)n2)cc(C)c1OCC(O)CNC(=O)CO` (racemic) [Example 23, rac-2-Hydroxy-N-(2-hydroxy-3-{4-[5-(4-isobutyl-3-methyl-thiophen-2-yl)-[1,2,4]oxadiazol-3-yl]-2,6-dimethyl-phenoxy}-propyl)acetamide] was tested, and the Lymphocyte counts was −73 ± 2.
For `COc1cc(OCC(O)CNC(=O)CO)ccc1-c1noc(-c2cc(CC(C)C)c(C)s2)n1` (stereo not drawn) [Example 46, 2-hydroxy-N-(2-hydroxy-3-{4-[5-(4-isobutyl-5-methyl-thiophen-2-yl)-[1,2,4]oxadiazol-3-yl]-3-methoxy-phenoxy}-propyl)-acetamide], the Lymphocyte counts was −77 ± 3.

Source: US8003800B2, “Thiophene derivatives as S1P1/EDG1 receptor agonists” (Actelion Pharmaceuticals Ltd., priority 2006, dated 2011)
